# Source: US20210198277A1, “AMINE-SUBSTITUTED ARYL OR HETEROARYL COMPOUNDS” (Epizyme, Inc., priority 2016, published 2021)
# Biological target: T1, EHMT1 (Homo sapiens, UniProt Q9H9B1)
# T1 sequence (Q9H9B1 1-1298): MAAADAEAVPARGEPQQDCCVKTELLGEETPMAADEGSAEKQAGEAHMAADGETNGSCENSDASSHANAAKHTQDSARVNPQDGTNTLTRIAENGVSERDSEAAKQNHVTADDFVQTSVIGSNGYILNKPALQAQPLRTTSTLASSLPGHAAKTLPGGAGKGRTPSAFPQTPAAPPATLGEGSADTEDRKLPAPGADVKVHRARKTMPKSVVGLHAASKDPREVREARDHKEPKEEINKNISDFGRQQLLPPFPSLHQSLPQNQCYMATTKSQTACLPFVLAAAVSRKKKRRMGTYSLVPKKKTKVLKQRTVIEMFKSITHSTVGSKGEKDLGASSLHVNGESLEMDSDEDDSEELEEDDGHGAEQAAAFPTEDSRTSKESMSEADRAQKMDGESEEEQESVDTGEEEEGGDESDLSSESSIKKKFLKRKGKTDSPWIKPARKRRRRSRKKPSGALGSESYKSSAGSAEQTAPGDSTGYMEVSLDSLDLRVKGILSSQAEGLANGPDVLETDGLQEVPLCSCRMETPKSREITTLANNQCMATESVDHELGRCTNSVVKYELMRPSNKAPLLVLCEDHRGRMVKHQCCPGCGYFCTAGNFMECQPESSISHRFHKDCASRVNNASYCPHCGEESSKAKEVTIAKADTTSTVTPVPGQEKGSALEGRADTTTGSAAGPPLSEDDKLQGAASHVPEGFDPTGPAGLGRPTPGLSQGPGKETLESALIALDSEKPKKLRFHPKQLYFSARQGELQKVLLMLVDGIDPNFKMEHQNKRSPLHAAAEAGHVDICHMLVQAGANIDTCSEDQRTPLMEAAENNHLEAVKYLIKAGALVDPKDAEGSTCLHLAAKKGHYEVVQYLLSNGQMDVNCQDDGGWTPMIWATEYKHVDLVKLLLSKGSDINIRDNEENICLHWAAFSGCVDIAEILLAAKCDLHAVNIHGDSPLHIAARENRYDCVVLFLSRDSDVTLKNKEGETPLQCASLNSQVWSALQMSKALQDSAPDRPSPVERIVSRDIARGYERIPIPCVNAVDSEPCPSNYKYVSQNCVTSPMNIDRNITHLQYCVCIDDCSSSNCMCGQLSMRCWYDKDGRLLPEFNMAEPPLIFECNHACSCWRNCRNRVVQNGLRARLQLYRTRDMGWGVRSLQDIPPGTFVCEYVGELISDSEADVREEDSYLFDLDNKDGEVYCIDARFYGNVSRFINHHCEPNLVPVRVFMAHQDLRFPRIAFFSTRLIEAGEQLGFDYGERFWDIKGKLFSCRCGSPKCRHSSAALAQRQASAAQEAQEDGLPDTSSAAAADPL
# Assay: EHMT1 enzyme assay on peptide substrate (EHMT1 PEP)
# Format: biochemical
# Conditions: Table VII; read-out: EHMT1 PEP IC50
row,IC50 [µM],SMILES
1,0.1 to 1,CNc1cc(C)nc(Nc2ccc(OC)c(OC[C@@H](O)CN3CCCC3)c2)n1 [Compound 1044]
2,< 0.1,CNc1cc(C)nc(Nc2ccc(OC)c(OC[C@H](O)CN3CCCC3)c2)n1 [Compound 1045]
3,1 to 10,CNc1ccnc(Nc2ccc(OC)c(OC[C@@H](O)CN3CCC3)c2)n1 [Compound 1046]
4,< 0.1,CNc1cc(C2CCOCC2)c2cc(OC)c(OC[C@H](O)CN3CCC3)cc2n1 [Compound 1108]
5,0.1 to 1,CNc1cc(C)nc(Nc2ccc(OC)c(CNCCNC3CCC3)c2)n1 [Compound 1109]
6,< 0.1,CNc1cc(C)nc(Nc2cnc(OC)c(CNCCN3CCC3)c2)n1 [Compound 1110]
7,< 0.1,CNc1cc(C2CCOCC2)c2cc(OC)c(CNCCN3CCCC3)cc2n1 [Compound 1111]
8,< 0.1,CNc1cc(C)nc(Nc2ccc(OC)c(OC[C@H](O)CN(C)C)c2)n1 [Compound 1112]
9,< 0.1,CCN(C)C[C@@H](O)COc1cc(Nc2nc(C)cc(NC)n2)ccc1OC [Compound 1113]
10,> 10,CNc1cc(C)nc(Nc2ccc(C)c(C(=O)NCc3ccon3)c2)n1 [Compound 1114]

# Same assay, conditions: read-out: EHMT1 PEP (IC50 μM)
row,SMILES,IC50 [µM]
1,CNc1nc(C2CCN(C(C)C)CC2)c2cc(OC)c(OC[C@@H]3CCN(C4CC4)C3)cc2n1 [Compound 526],< 0.1
2,COc1cc2c(C3CCN(C)CC3)nc(N3CCC(F)(F)CC3)nc2cc1OCCCN1CCCC1 [Compound 528],0.1 to 1
3,COc1cc2c(C3CCN(C)CC3)cc(C)nc2cc1OCCCN1CCCC1 [Compound 536],< 0.1
4,"CCCCNc1nccc(NC)n1 [Compound 543, N^2-butyl-N^4-methylpyrimidine-2,4-diamine]",> 10

# Further lines, results first:
row,IC50 [µM],SMILES
1,1 to 10,"CNc1nc(C2CCCC2)c2cc(OC)c(OCCCN3CCCC3)cc2n1 [Compound 518, 4-cyclopentyl-6-methoxy-N-methyl-7-(3-(pyrrolidin-1-yl)propoxy)quinazolin-2-amine]"
2,1 to 10,CNc1nc(C2CCN(C(C)=O)CC2)c2cc(OC)c(OCCCN3CCCC3)cc2n1 [Compound 519]
3,< 0.1,CNc1nc(C2CCNCC2)c2cc(OC)c(OCCCN3CCCC3)cc2n1 [Compound 520]
4,1 to 10,CNc1nc(C2CCOCC2)c2cc(OC)c(OCCCN3CCCC3)cc2n1 [Compound 521]
5,1 to 10,CNc1nc(C2=CCOCC2)c2cc(OC)c(OCCCN3CCCC3)cc2n1 [Compound 522]
6,1 to 10,"CNc1nc(C2CCCCC2)c2cc(OC)c(OCCCN3CCCC3)cc2n1 [Compound 523, 4-cyclohexyl-6-methoxy-N-methyl-7-(3-(pyrrolidin-1-yl)propoxy)quinazolin-2-amine]"
7,< 0.1,"CNc1cc(C2CCOCC2)c2cc(OC)c(OCCCN3CCCC3)cc2n1 [Compound 524, 6-methoxy-N-methyl-4-(oxan-4-yl)-7-[3-(pyrrolidin-1-yl)propoxy]quinolin-2-amine]"
8,< 0.1,COc1cc2c(C3CCN(C)CC3)nc(N3CCCC3)nc2cc1OCCCN1CCCC1 [Compound 527]
9,< 0.1,COc1cc2c(C3CCN(C)CC3)nc(NC3CCCC3)nc2cc1OCCCN1CCCC1 [Compound 529]
10,< 0.1,CNc1nc(C2CCN(C(C)C)CC2)c2cc(OC)c(OCCCN3CCCC3)cc2n1 [Compound 530]
11,< 0.1,CNc1nc(C2CCN(C)CC2)c2cc(OC)c(OCCCN3CC4CC4C3)cc2n1 (stereo not shown) [Compound 532]
12,< 0.1,CNc1nc(C2CCN(CCO)CC2)c2cc(OC)c(OCCCN3CCCC3)cc2n1 [Compound 533]
13,1 to 10,CNc1nc(C2CC(C)(C)NC(C)(C)C2)c2cc(OC)c(OCCCN3CCCC3)cc2n1 [Compound 534]
14,< 0.1,CNc1cc(C2CCN(C)CC2)c2cc(OC)c(OCCCN3CCCC3)cc2n1 [Compound 535]
